In US20250213598A1, “COMPOUNDS AS ELASTASE INHIBITOR AND SOLID FORM THEREOF” (priority 2023, published 2025):

Columns and labels:
Format in all cases: physicochemical
[1] = Solid-state stability, 2-week study (HPLC, XRPD)
Method: The solubility and stability are analyzed using an Agilent 1260 infinityII Binary Pump. • 4.

[2] = Photostability of crystal form A and amorphous form
Method: A certain amount of crystal form A and amorphous form of the compound shown in Formula (I) were respectively taken, and the stabilities of crystal form A and amorphous form were evaluated under light conditions.

[3] = Dynamic solubility in citrate buffer solutions at room temperature; details: for pH: supernatant
Method: During the test, about 200 mg of crystal form A or the amorphous form was added into 5 mL of buffered salt medium (approximately 40 mg/mL), and stirred magnetically at room temperature (approximately 25° C.). 1 mL of the suspension (or clear solution) taken at each of 2, 8, and 30 hours were centrifugated. The obtained solid is for crystal form detection (XRPD), and the supernatant/clear liquid after filtration is for solubility testing (HPLC) and pH testing.

[4] = After 11 days, 25° C., illumination 5000 lux/h, near-ultraviolet 90 μW/cm^2

C#Cc1c(F)ccc2cc(O)cc(-c3ncc4c(N5CC6CCC(C5)N6)nc(OC[C@@]56CCCN5C[C@H](F)C6)nc4c3F)c12 [Amorphous]
Content (%) ([1]; 25° C./60 % RH, 1 week): 88.54%
Crystal form ([1]; 25° C./60 % RH, 1 week): Amorphous
Purity (area %) ([1]; 25° C./60 % RH, 1 week): 97.58 area %
Relative to initial (%) ([1]; 25° C./60 % RH, 1 week): 99.0%
Content (%) ([1]; 25° C./60 % RH, 2 weeks): 86.62%
Crystal form ([1]; 25° C./60 % RH, 2 weeks): Amorphous
Purity (area %) ([1]; 25° C./60 % RH, 2 weeks): 96.98 area %
Relative to initial (%) ([1]; 25° C./60 % RH, 2 weeks): 98.4%
crystal form changes in the two-week stability assessment ([1]; 25° C./60% RH, 40° C./75% RH, 60° C., two weeks): neither the amorphous form nor crystal form A underwent crystal form changes
Content (%) ([1]; 40° C./75 % RH, 1 week): 87.54%
Crystal form ([1]; 40° C./75 % RH, 1 week): Amorphous
Purity (area %) ([1]; 40° C./75 % RH, 1 week): 97.87 area %
Relative to initial (%) ([1]; 40° C./75 % RH, 1 week): 99.3%
Content (%) ([1]; 40° C./75 % RH, 2 weeks): 86.77%
Crystal form ([1]; 40° C./75 % RH, 2 weeks): Amorphous
Purity (area %) ([1]; 40° C./75 % RH, 2 weeks): 96.87 area %
Relative to initial (%) ([1]; 40° C./75 % RH, 2 weeks): 98.3%
Content (%) ([1]; 60° C., 1 week): 90.96%
Crystal form ([1]; 60° C., 1 week): Amorphous
Purity (area %) ([1]; 60° C., 1 week): 96.97 area %
Relative to initial (%) ([1]; 60° C., 1 week): 98.4%
Content (%) ([1]; 60° C., 2 weeks): 88.93%
Crystal form ([1]; 60° C., 2 weeks): Amorphous
Purity (area %) ([1]; 60° C., 2 weeks): 96.14 area %
Relative to initial (%) ([1]; 60° C., 2 weeks): 97.5%
Content (%) ([1]; initial): 90.28%
Crystal form ([1]; initial): Amorphous
Purity (area %) ([1]; initial): 98.56 area %
Content (%) [2, 4]: 82.68%
Crystal form [2, 4]: Amorphous
Purity (area %) [2, 4]: 93.42 area %
Relative to initial (%) [2, 4]: 94.8%
Initial Sample Content (%) ([2]; initial sample): 90.28%
Initial Sample Purity (area %) ([2]; initial sample): 98.56 area %
crystal form changes in the photostability test ([2]; light conditions): neither the amorphous form nor crystal form A underwent crystal form changes
Solubility ([3]; Citrate buffer pH = 3.5, room temperature, 2 hours): >37.77 mg/mL
Solubility ([3]; Citrate buffer pH = 3.5, room temperature, 8 hours): >38.95 mg/mL
Solubility ([3]; Citrate buffer pH = 3.5, room temperature, 30 hours): >37.45 mg/mL
Solubility ([3]; Citrate buffer pH = 4.5, room temperature, 2 hours): >33.47 mg/mL
Solubility ([3]; Citrate buffer pH = 4.5, room temperature, 8 hours): >35.71 mg/mL
Solubility ([3]; Citrate buffer pH = 4.5, room temperature, 30 hours): >37.52 mg/mL
solubility in the citrate buffer systems (in words) ([3]; citrate buffer pH=3.5 and pH=4.5): excellent solubility
pH ([3]; citrate buffer pH = 3.5, 2 hours): 3.63
pH ([3]; citrate buffer pH = 3.5, 8 hours): 3.59
pH ([3]; citrate buffer pH = 3.5, 30 hours): 3.56
pH ([3]; citrate buffer pH = 4.5, 2 hours): 4.46
pH ([3]; citrate buffer pH = 4.5, 8 hours): 4.44
pH ([3]; citrate buffer pH = 4.5, 30 hours): 4.40
